Values joined by “and” are separate entries in the source; they are usually repeats but may differ in a detail not shown here. Equal values may be shown once. Toxic doses and inconclusive results are not listed. The calls were made as follows: active = survival T/C of 150% or more; inactive = T/C below 125% in these data.
Test system: CD2F1 mice, L1210 leukemia ip, survival T/C
Assay: NCI In Vivo Anticancer Drug Screen. Data for tumor model L1210 Leukemia (intraperitoneal) in CD2F1 (CDF1) mice
Conditions: higher = longer survival
Experimental: The antitumor activity of compounds was measured in mice bearing transplantable tumors. Survival or tumor size were measured and the results are expressed as the measurement made in the treated group (T) divided by the measurement made in the vehicle treated control group (C). The tumor model used in this assay is L1210 Leukemia (intraperitoneal) in CD2F1 (CDF1) mice

[1] = endpoint: mean survival time, dose: 100.0 mg/kg/injection, schedule: Q01DX001 (ip), vehicle: saline with Tween-80
[2] = endpoint: mean survival time, dose: 200.0 mg/kg/injection, schedule: Q01DX001 (ip), vehicle: saline with Tween-80
[3] = endpoint: mean survival time, dose: 400.0 mg/kg/injection, schedule: Q01DX001 (ip), vehicle: saline with Tween-80
[4] = endpoint: mean survival time, dose: 25.0 mg/kg/injection, schedule: Q01DX009 (ip), vehicle: saline with Tween-80
[5] = endpoint: mean survival time, dose: 50.0 mg/kg/injection, schedule: Q01DX009 (ip), vehicle: saline with Tween-80
[6] = endpoint: mean survival time, dose: 100.0 mg/kg/injection, schedule: Q01DX009 (ip), vehicle: saline with Tween-80
[7] = endpoint: mean survival time, dose: 200.0 mg/kg/injection, schedule: Q01DX009 (ip), vehicle: saline with Tween-80
[8] = endpoint: mean survival time, dose: 12.5 mg/kg/injection, schedule: Q01DX009 (ip), vehicle: saline with Tween-80
[9] = endpoint: mean survival time, dose: 25.0 mg/kg/injection, schedule: Q01DX009 (ip), vehicle: Klucel (hydroxypropylcellulose) (HPC)
[10] = endpoint: mean survival time, dose: 50.0 mg/kg/injection, schedule: Q01DX009 (ip), vehicle: Klucel (hydroxypropylcellulose) (HPC)
[11] = endpoint: mean survival time, dose: 12.5 mg/kg/injection, schedule: Q04DX003 (ip), vehicle: saline with Tween-80
[12] = endpoint: mean survival time, dose: 100.0 mg/kg/injection, schedule: Q04DX003 (ip), vehicle: saline with Tween-80
[13] = endpoint: mean survival time, dose: 200.0 mg/kg/injection, schedule: Q04DX003 (ip), vehicle: saline with Tween-80
[14] = endpoint: mean survival time, dose: 400.0 mg/kg/injection, schedule: Q01DX009 (ip), vehicle: saline with Tween-80
[15] = endpoint: mean survival time, dose: 400.0 mg/kg/injection, schedule: Q04DX003 (ip), vehicle: saline with Tween-80
[16] = endpoint: mean survival time, dose: 25.0 mg/kg/injection, schedule: Q04DX002 (ip), vehicle: saline with Tween-80
[17] = endpoint: mean survival time, dose: 50.0 mg/kg/injection, schedule: Q04DX002 (ip), vehicle: saline with Tween-80
[18] = endpoint: mean survival time, dose: 100.0 mg/kg/injection, schedule: Q04DX002 (ip), vehicle: saline with Tween-80
[19] = endpoint: mean survival time, dose: 200.0 mg/kg/injection, schedule: Q04DX002 (ip), vehicle: saline with Tween-80

Measured: T/C

COC1OC2COC(c3ccccc3)OC2C(OS(C)(=O)=O)C1OS(C)(=O)=O (stereo unspecified)
inactive: [1] 103 % of control | [2] 105 % of control | [3] 101 % of control

Cc1[nH]c2ccccc2c1C(c1cc(Cl)cc(Cl)c1O)c1c(C)[nH]c2ccccc12
inactive: [4] 88 % of control | [5] 86 % of control | [6] 86 % of control | [7] 86 % of control

CC(=O)Nc1ccc(OCCOC(=O)Nc2ccc(C)c([N+](=O)[O-])c2)cc1
inactive: [8] 92 % of control | [4] 88 % of control | [5] 92 % of control

Cc1sc2ccccc2[n+]1C
inactive: endpoint: mean survival time, dose: 12.5 mg/kg/injection, schedule: Q01DX009 (ip), vehicle: Klucel (hydroxypropylcellulose) (HPC) 93 % of control | [9] 95 % of control | [10] 87 % of control

CCC[CH2][Sn]([CH2]CCC)([n]1cncn1)[n]1cncn1
inactive: [11] 105 % of control

CC(=O)CC(C)=O.CC(=O)CC(C)=O.O=N[O-].O=N[O-].[Co]
inactive: endpoint: median survival time, dose: 12.5 mg/kg/injection, schedule: Q01DX009 (ip), vehicle: saline with Tween-80 106 % of control and 108 % of control and 111 % of control | endpoint: median survival time, dose: 25.0 mg/kg/injection, schedule: Q01DX009 (ip), vehicle: saline with Tween-80 118 % of control and 111 % of control and 112 % of control | endpoint: median survival time, dose: 50.0 mg/kg/injection, schedule: Q01DX009 (ip), vehicle: saline with Tween-80 116 % of control and 118 % of control | endpoint: median survival time, dose: 100.0 mg/kg/injection, schedule: Q01DX009 (ip), vehicle: saline with Tween-80 90 % of control

Cc1cc2ccc(Br)cc2[nH]1
inactive: endpoint: mean survival time, dose: 100.0 mg/kg/injection, schedule: Q01DX001 (ip), vehicle: other 104 % of control | endpoint: mean survival time, dose: 200.0 mg/kg/injection, schedule: Q01DX001 (ip), vehicle: other 101 % of control | endpoint: mean survival time, dose: 400.0 mg/kg/injection, schedule: Q01DX001 (ip), vehicle: other 98 % of control

O=C(/C=C(\CN1CCCCC1)c1ccccc1)c1ccccc1
inactive: [9] 95 % of control | [10] 105 % of control | endpoint: mean survival time, dose: 100.0 mg/kg/injection, schedule: Q01DX009 (ip), vehicle: Klucel (hydroxypropylcellulose) (HPC) 94 % of control

Cc1ccc(NC(=O)c2ccccc2Cl)c(C)c1
inactive: [6] 110 % of control | [12] 104 % of control | [7] 93 % of control | [13] 101 % of control | [14] 98 % of control | [15] 97 % of control

O.O=[N+]([O-])O.[NH-]C1CCCCC1[NH-].[Pt+2] (stereo unspecified)
inactive: endpoint: mean survival time, dose: 0.32 mg/kg/injection, schedule: Q04DX003 (ip), vehicle: other 113 % of control | endpoint: mean survival time, dose: 0.63 mg/kg/injection, schedule: Q04DX003 (ip), vehicle: other 119 % of control

CN1CCN(Cc2cn(C3CC(O)C(CO)O3)c(=O)[nH]c2=O)c2ccccc21 (stereo unspecified)
inactive: endpoint: mean survival time, dose: 12.5 mg/kg/injection, schedule: Q01DX005 (ip), vehicle: distilled water + Tween-80 93 % of control | endpoint: mean survival time, dose: 25.0 mg/kg/injection, schedule: Q01DX005 (ip), vehicle: distilled water + Tween-80 93 % of control | endpoint: mean survival time, dose: 50.0 mg/kg/injection, schedule: Q01DX005 (ip), vehicle: distilled water + Tween-80 93 % of control | endpoint: mean survival time, dose: 100.0 mg/kg/injection, schedule: Q01DX005 (ip), vehicle: distilled water + Tween-80 103 % of control | endpoint: mean survival time, dose: 200.0 mg/kg/injection, schedule: Q01DX005 (ip), vehicle: distilled water + Tween-80 93 % of control

CC(C)(O)C(=O)O
inactive: endpoint: mean survival time, dose: 50.0 mg/kg/injection, schedule: Q01DX009 (ip), vehicle: saline 96 % of control | endpoint: mean survival time, dose: 100.0 mg/kg/injection, schedule: Q01DX009 (ip), vehicle: saline 93 % of control | endpoint: mean survival time, dose: 200.0 mg/kg/injection, schedule: Q01DX009 (ip), vehicle: saline 86 % of control

O=P(O)(CCCCl)c1ccccc1
inactive: [16] 95 % of control | [17] 91 % of control | [18] 98 % of control | [19] 91 % of control

COc1cccc2c1CCC1=C2CC=C2CC3(CCC21C)OCCO3 (stereo unspecified)
inactive: endpoint: mean survival time, dose: 100.0 mg/kg/injection, schedule: Q04DX003 (sc), vehicle: steriod suspending solution 91 % of control | endpoint: mean survival time, dose: 200.0 mg/kg/injection, schedule: Q04DX003 (sc), vehicle: steriod suspending solution 96 % of control | endpoint: mean survival time, dose: 400.0 mg/kg/injection, schedule: Q04DX003 (sc), vehicle: steriod suspending solution 97 % of control

Oc1c(Br)cc(Br)cc1C=Nc1ccc(Br)cc1
inactive: [12] 110 % of control | [13] 97 % of control | [15] 95 % of control

C1C2OC2CC2OC12 (stereo unspecified)
inactive: [1] 97 % of control | [2] 97 % of control | [3] 98 % of control

C[n+]1cccc(C(=O)N/N=C/CCc2ccccc2)c1
inactive: [8] 92 % of control | [4] 93 % of control | [16] 100 % of control | [5] 97 % of control | [17] 95 % of control | [6] 97 % of control | [18] 101 % of control | [19] 97 % of control

Cn1ncc2c1C(=O)c1nc(-c3ccccc3)c(-c3ccccc3)nc1C2=O
inactive: endpoint: mean survival time, dose: 50.0 mg/kg/injection, schedule: Q04DX003 (ip), vehicle: saline 98 % of control | endpoint: mean survival time, dose: 100.0 mg/kg/injection, schedule: Q04DX003 (ip), vehicle: saline 92 % of control

NC(=O)c1ncn(C2OC(CO)C(O)C2O)c1Cl (stereo unspecified)
inactive: endpoint: median survival time, dose: 8.0 mg/kg/injection, schedule: Q01DX005 (ip), vehicle: water 100 % of control | endpoint: median survival time, dose: 16.0 mg/kg/injection, schedule: Q01DX005 (ip), vehicle: water 103 % of control | endpoint: median survival time, dose: 32.0 mg/kg/injection, schedule: Q01DX005 (ip), vehicle: water 100 % of control | endpoint: median survival time, dose: 64.0 mg/kg/injection, schedule: Q01DX005 (ip), vehicle: water 100 % of control | endpoint: median survival time, dose: 128.0 mg/kg/injection, schedule: Q01DX005 (ip), vehicle: water 107 % of control

c1cc2c3c(c1)nc(CCc1nc4cccc5c4n1CCC5)n3CCC2
inactive: [4] 100 % of control | [5] 91 % of control | [6] 92 % of control

C1=CC=CCC=C1
inactive: [8] 92 % of control | [4] 92 % of control | [5] 98 % of control

NC(=O)NNC(=O)C(Cl)(Cl)Cl
inactive: endpoint: mean survival time, dose: 100.0 mg/kg/injection, schedule: Q04DX002 (ip), vehicle: saline 103 % of control

CC(=O)OC/C(=N\Nc1ccc([N+](=O)[O-])cc1[N+](=O)[O-])c1ccccc1
inactive: endpoint: mean survival time, dose: 3.13 mg/kg/injection, schedule: Q01DX001 (ip), vehicle: saline with Tween-80 107 % of control | endpoint: mean survival time, dose: 6.25 mg/kg/injection, schedule: Q01DX001 (ip), vehicle: saline with Tween-80 94 % of control | [1] 86 % of control | [3] 90 % of control

O=[N+]([O-])c1ccccc1-c1n[nH]c2ccccc12
inactive: [16] 113 % of control | [17] 106 % of control | [18] 106 % of control | [19] 110 % of control

CCCCOC(=O)C(C)OC(=O)Nc1cccc(Cl)c1 (stereo unspecified)
inactive: [12] 100 % of control | [13] 101 % of control | [15] 97 % of control

O=C(NC1CCCCC1)NC1CCCCC1
inactive: [12] 100 % of control | [13] 98 % of control | [15] 93 % of control

CCCN(CCC)CCCCCCO
inactive: [5] 98 % of control | [6] 98 % of control | [7] 97 % of control

O=[N+]([O-])c1cc(S(=O)(=O)c2ccc(N3CCOCC3)c([N+](=O)[O-])c2)ccc1N1CCOCC1
inactive: [6] 93 % of control | [7] 101 % of control | [14] 92 % of control

CC1CCC2CC(=O)NC(=O)CC12 (stereo unspecified)
inactive: endpoint: mean survival time, dose: 6.25 mg/kg/injection, schedule: Q01DX009 (ip), vehicle: saline with Tween-80 98 % of control | endpoint: mean survival time, dose: 6.25 mg/kg/injection, schedule: Q04DX003 (ip), vehicle: saline with Tween-80 97 % of control | [8] 95 % of control | [11] 97 % of control | [4] 96 % of control | endpoint: mean survival time, dose: 25.0 mg/kg/injection, schedule: Q04DX003 (ip), vehicle: saline with Tween-80 92 % of control

From PubChem BioAssay AID256 (DTP/NCI, 2004)
